In the assay the target is T1, wt human NUAK1, full length (Homo sapiens, UniProt O60285).
T1 construct: 8 nM wt human NUAK1, full length (ThermoFisher/USA); purchased ThermoFisher/USA
T1 sequence (O60285 1-661): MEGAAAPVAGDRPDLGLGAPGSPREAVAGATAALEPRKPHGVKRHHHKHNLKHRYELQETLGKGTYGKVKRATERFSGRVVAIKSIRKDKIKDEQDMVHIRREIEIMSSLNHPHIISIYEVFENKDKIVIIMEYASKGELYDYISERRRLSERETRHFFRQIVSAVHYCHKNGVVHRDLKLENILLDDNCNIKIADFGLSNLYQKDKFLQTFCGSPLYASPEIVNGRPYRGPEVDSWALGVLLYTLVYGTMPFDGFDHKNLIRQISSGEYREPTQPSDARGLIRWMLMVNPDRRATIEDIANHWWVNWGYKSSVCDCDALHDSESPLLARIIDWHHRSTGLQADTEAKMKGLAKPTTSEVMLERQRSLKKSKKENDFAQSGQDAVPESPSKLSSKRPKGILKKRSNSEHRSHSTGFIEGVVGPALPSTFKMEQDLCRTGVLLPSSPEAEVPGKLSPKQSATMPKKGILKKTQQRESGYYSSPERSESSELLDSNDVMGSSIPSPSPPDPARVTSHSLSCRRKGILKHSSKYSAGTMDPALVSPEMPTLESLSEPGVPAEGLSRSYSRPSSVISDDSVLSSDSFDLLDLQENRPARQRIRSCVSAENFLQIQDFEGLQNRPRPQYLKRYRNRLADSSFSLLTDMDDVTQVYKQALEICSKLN
Put plainly: TR-FRET LanthaScreen Eu Kinase Binding Assay, NUAK1. The following applies: 5 nM Kinase Tracer 236; read-out: IC50, inhibitory activity toward NUAK1. The protocol: The basic protocol for TR-FRET LanthaScreen Eu Kinase Binding Assay inhibitor studies were performed as follows. LanthaScreen Kinase Binding Assays (ThermoFisher/USA) to evaluate inhibitors were performed by addition of 5 μl of test compound in corresponding DMSO dilutions/5 μl of kinase/antibody mixture, 5 μl of tracer into 384 well small volume plates. After incubation for 1 hour at room temperature, plates were read. Data analysis of emission ratios was according to LanthaScreen Eu Kinase Binding Assay protocol.
Kinase and assay components were adjusted to final concentrations according to the kit protocol. For LRRK2: 5 nM wt human LRRK2, catalytic site, or G2019S human LRRK2, catalytic site (ThermoFisher/USA), 2 nM Eu-Anti-GST Antibody, 10 nM Kinase Tracer 236 in 1× Kinase Buffer A. For NUAK1: 8 nM wt human NUAK1, full length (ThermoFisher/USA), 2 nM Eu-Anti-His Antibody, 5 nM Kinase Tracer 236 in 1× Kinase Buffer A.
In general terms: In TR-FRET formats the signal depends on donor and acceptor labels being close together.
As for `Fc1cccc(F)c1C1=Nc2cn[nH]c2-c2cc(OC(F)(F)F)ccc2N1` [Compound 40, 5-(2,6-difluorophenyl)-9-(trifluoromethoxy)-1,6-dihydrobenzo[d]pyrazolo[3,4-f][1,3]diazepine], the IC50 (as a rule, the concentration at which inhibition is half-maximal) is 0.1 to 1 µM.
For `Fc1cccc(Cl)c1C1=Nc2cn[nH]c2-c2cc(OC(F)(F)F)ccc2N1` [Compound 41, 5-(2-chloro-6-fluorophenyl)-9-(trifluoromethoxy)-1,6-dihydrobenzo[d]pyrazolo[3,4-f][1,3]diazepine], the IC50 lay within 0.1 to 1 µM.
Under `CCc1ccc2c(c1)-c1[nH]ncc1N=C(c1c(F)cccc1F)N2` [Compound 44, 5-(2,6-difluorophenyl)-9-ethyl-1,6-dihydrobenzo[d]pyrazolo[3,4-f][1,3]diazepine] stands 0.01 to 0.1 µM.
`Fc1cccc(F)c1C1=Nc2cn[nH]c2-c2cc(C(F)(F)F)ccc2N1` [Compound 46, 5-(2,6-difluorophenyl)-9-(trifluoromethyl)-1,6-dihydrobenzo[d]pyrazolo[3,4-f][1,3]diazepine]: the 50% inhibitory concentration (IC50) is 0.01 to 0.1 µM.
As to `Fc1cccc(Cl)c1C1=Nc2cn[nH]c2-c2cc(C(F)(F)F)ccc2N1` [Compound 47, 5-(2-chloro-6-fluorophenyl)-9-(trifluoromethyl)-1,6-dihydrobenzo[d]pyrazolo[3,4-f][1,3]diazepine], the 50% inhibitory concentration (IC50) lay within 0.1 to 1 µM.
Under `FCc1ccc2c(c1)-c1[nH]ncc1N=C(c1c(F)cccc1F)N2` [Compound 51, 5-(2,6-difluorophenyl)-9-(fluoromethyl)-1,6-dihydrobenzo[d]pyrazolo[3,4-f][1,3]diazepine] stands 0.1 to 1 µM.
Regarding `Fc1cccc(F)c1C1=Nc2cn[nH]c2-c2cc(-c3ccc[nH]3)cnc2N1` [Compound 87, 5-(2,6-difluorophenyl)-9-(1H-pyrrol-2-yl)-1,6-dihydropyrazolo[4,3-d]pyrido[3,2-f][1,3]diazepine], the half-maximal inhibitory concentration (IC50) was in the range of 0.1 to 1 µM.
Under `CC(C)Oc1ccc2c(c1)NC(c1c(F)cccc1F)=Nc1cn[nH]c1-2` [Compound 100, 5-(2,6-difluorophenyl)-8-isopropoxy-1,6-dihydrobenzo[d]pyrazolo[3,4-f][1,3]diazepine] stands 0.1 to 1 µM; under `Fc1cccc(F)c1C1=Nc2cn[nH]c2-c2cc(OC3CCOCC3)ccc2N1` [Compound 102, 5-(2,6-difluorophenyl)-9-((tetrahydro-2H-pyran-4-yl)oxy)-1,6-dihydrobenzo[d]pyrazolo[3,4-f][1,3]diazepine], 0.1 to 1 µM; under `CN(C)C(=O)Oc1ccc2c(c1)-c1[nH]ncc1NC(c1c(F)cccc1F)=N2` [Compound 136, 5-(2,6-difluorophenyl)-1,4-dihydrobenzo[d]pyrazolo[3,4-f][1,3]diazepin-9-yl dimethylcarbamate], 0.1 to 1 µM.
Under `Fc1cccc(F)c1C1=Nc2c(C3CC3)n[nH]c2-c2ccccc2N1` [Compound 137, 3-cyclopropyl-5-(2,6-difluorophenyl)-1,6-dihydrobenzo[d]pyrazolo[3,4-f][1,3]diazepine] stands 0.1 to 1 µM; under `NC(=O)c1cnc2c(c1)-c1[nH]ncc1N=C(c1c(F)cccc1F)N2` [Compound 140, 5-(2,6-difluorophenyl)-1,6-dihydropyrazolo[4,3-d]pyrido[3,2-f][1,3]diazepine-9-carboxamide], 0.1 to 1 µM.
`CSc1n[nH]c2c1NC(c1c(F)cccc1F)=Nc1ccc(C)cc1-2` [Compound 145, 5-(2,6-difluorophenyl)-9-methyl-3-(methylthio)-1,4-dihydrobenzo[d]pyrazolo[3,4-f][1,3]diazepine]: the concentration for half-maximal inhibition (IC50) lay in the range of 0.1 to 1 µM.
Next, `CCc1cc(F)c2c(c1)-c1[nH]ncc1NC(c1c(F)cccc1F)=N2` [Compound 167, 5-(2,6-difluorophenyl)-9-ethyl-7-fluoro-1,4-dihydrobenzo[d]pyrazolo[3,4-f][1,3]diazepine]: 0.1 to 1 µM; `COc1cc(F)c(C2=Nc3cn[nH]c3-c3cc(C)ccc3N2)c(F)c1` [Compound 173, 5-(2,6-difluoro-4-methoxyphenyl)-9-methyl-1,6-dihydrobenzo[d]pyrazolo[3,4-f][1,3]diazepine]: 0.01 to 0.1 µM; `Cc1ccc2c(c1)-c1[nH]ncc1N=C(c1c(F)cc(F)cc1F)N2` [Compound 175, 9-methyl-5-(2,4,6-trifluorophenyl)-1,6-dihydrobenzo[d]pyrazolo[3,4-f][1,3]diazepine]: 0.01 to 0.1 µM.
Under `Cc1ccc2c(c1)-c1[nH]ncc1N=C(c1c(F)cc(Br)cc1F)N2` [Compound 176, 5-(4-bromo-2,6-difluorophenyl)-9-methyl-1,6-dihydrobenzo[d]pyrazolo[3,4-f][1,3]diazepine] stands 0.1 to 1 µM; under `Cc1ccc2c(c1)-c1[nH]ncc1N=C(c1c(F)ccc(N)c1F)N2` [Compound 177, 2,4-difluoro-3-(9-methyl-1,6-dihydrobenzo[d]pyrazolo[3,4-f][1,3]diazepin-5-yl)aniline], 0.1 to 1 µM; under `Cc1ccc2c(c1)-c1n[nH]cc1NC(c1c(F)ccc(C)c1F)=N2` [Compound 178, 5-(2,6-difluoro-3-methylphenyl)-9-methyl-2,4-dihydrobenzo[d]pyrazolo[3,4-f][1,3]diazepine], 0.01 to 0.1 µM.
Consider `Cc1cc(F)c(C2=Nc3ccc(C)cc3-c3n[nH]cc3N2)c(F)c1` [Compound 179, 5-(2,6-difluoro-4-methylphenyl)-9-methyl-2,4-dihydrobenzo[d]pyrazolo[3,4-f][1,3]diazepine], for which the IC50 lay within 0.01 to 0.1 µM.
Under `Cc1ccc2c(c1)-c1[nH]ncc1NC(c1c(F)ccc(F)c1Cl)=N2` [Compound 185, 5-(2-chloro-3,6-difluorophenyl)-9-methyl-1,4-dihydrobenzo[d]pyrazolo[3,4-f][1,3]diazepine] stands 0.1 to 1 µM; under `Fc1cccc(Cl)c1C1=Nc2cnc(C(F)(F)F)cc2-c2[nH]ncc2N1` [Compound 188, 5-(2-chloro-6-fluorophenyl)-9-(trifluoromethyl)-1,4-dihydropyrazolo[4,3-d]pyrido[4,3-f][1,3]diazepine], 0.1 to 1 µM; under `FCCc1ccc2c(c1)-c1n[nH]cc1NC(c1c(F)cccc1F)=N2` [Compound 204, 5-(2,6-difluorophenyl)-9-(2-fluoroethyl)-2,4-dihydrobenzo[d]pyrazolo[3,4-f][1,3]diazepine], 0.1 to 1 µM.
Under `Cc1ccc2c(c1)-c1n[nH]cc1NC(c1c(F)cc(C(F)(F)F)cc1F)=N2` [Compound 205, 5-(2,6-difluoro-4-(trifluoromethyl)phenyl)-9-methyl-2,4-dihydrobenzo[d]pyrazolo[3,4-f][1,3]diazepine] stands 0.1 to 1 µM; under `Cc1ccc2c(c1)-c1n[nH]cc1NC(c1c(F)cccc1C(F)(F)F)=N2` [Compound 206, 5-(2-fluoro-6-(trifluoromethyl)phenyl)-9-methyl-2,4-dihydrobenzo[d]pyrazolo[3,4-f][1,3]diazepine], 0.1 to 1 µM.
Under `O=C(Nc1ccc2c(c1)-c1n[nH]cc1NC(c1c(F)cccc1F)=N2)OCc1ccccc1` [Compound 207, benzyl(5-(2,6-difluorophenyl)-2,4-dihydrobenzo[d]pyrazolo[3,4-f][1,3]diazepin-9-yl)carbamate] stands 0.01 to 0.1 µM; under `OCCc1ccc2c(c1)-c1n[nH]cc1NC(c1c(F)cccc1F)=N2` [Compound 208, 2-(5-(2,6-difluorophenyl)-2,4-dihydrobenzo[d]pyrazolo[3,4-f][1,3]diazepin-9-yl)ethan-1-ol], 0.1 to 1 µM.

(Values after US20220380374A1, “1,4-DIHYDROBENZO[D]PYRAZOLO[3,4-F][1,3]DIAZEPINE DERIVATIVES AND RELATED COMPOUNDS AS LRRK2, NUAK1 AND/OR TYK2 KINASE MODULATORS FOR THE TREATMENT OF E.G. AUTOIMMUNE DISEASE” (Origenis GMBH, priority 2019, published 2022).)
